Experimental findings from patent EP3204002B1, “PHARMACEUTICAL COMBINATION FOR THE TREATMENT OF TUMORS” (International Society for Drug Development S.r.l., priority 2014, dated 2016) are described below.

Common to all, as to format: cell-based, human
One experiment has as its system U87MG cells. The experiment in a line: cell viability by MTS assay in U87MG cells. The following applies: 72 hours. On the procedure: The human cells of glioblastoma multiforme U87MG were obtained from the national cancer research institute in Genoa (Italy) and were monitored to determine the DNA profiling. The U87MG cells were cultivated in RPMI medium with the addition of 10% FBS, 2 mM of L-glutamine, 100 U/ml of penicillin, […] of streptomycin and 1% of non-essential amino acids at 37°C in 5% CO2. The cells were used in the successive experiments up to the fourth detaching passage.
The U87MG cells were grown at 37°C in a humid atmosphere in the presence of 5% CO2. and were placed in a plate at a density of 3,000 cells/well. After 24 hours, the culture medium was replaced with fresh culture medium containing different concentrations of the compound 9 solubilized in DMSO. After 72 hours, the cell viability was assayed by means of MTS assay according to the manufacturer's instructions. […] The formazan formed is determined via reading of the absorbance at 490 nm measured with an automated plate reader (Victor Wallac 2, Perkin Elmer). […] The results were calculated by subtracting the mean background value from the values obtained from each evaluation and were expressed as a control percentage (non-treated cells). […] At the end of the treatments, the cell viability was determined by means of MTS assay.
On the technique in general: Tetrazolium assays rely on reduction of a dye to a coloured formazan, in cell work by metabolically active cells.

Another experiment concerns U118-MG. The experiment in a line: cell viability / cytotoxicity by WST-1 colorimetric assay in U118-MG. The following applies: alone, 10µM and 100µM. On the procedure: (§1) The cell line ANGM-CSS and U118-MG were used, human glioblastoma multiforme (GBM) lines. The ANGM-CSS cell line (ECACC cat n°08040401) was supplied by Dr. Angelo Notarangelo, Laboratorio di Citogenetica, IRCCS Casa Sollievo della Sofferenza, San Giovanni Rotondo (FG), Italy. The U118-MG line was purchased from ATCC, Manassas, VA, USA. The culture medium consisted of DMEM:HAMS F12 (1:1) (Sigma-Aldrich) with the addition of 2mM of L-Glutamine (Sigma Aldrich), 10% Fetal Bovine Serum (FBS, Sigma-Aldrich), 100 units/ml penicillin and 100µg/ml streptomycin (P/S) at 37°C in an atmosphere with 5% CO2.
(§2) The cytotoxicity was evaluated via a colorimetric assay, using WST-1 (4-[3-(4-iodophenyl)-2-(4-nitrophenyl)-2H-5-tetrazolium]-1,3-benzene disulfonate) (Roche, Mannheim, Germany). The inhibition of the cell proliferation is expressed as a percentage of the absorbance at 450nm relative to the non-treated cells in culture. The absorbance was measured by an Enspire microplate reader (PerkinElmer, Wellesley, MA, USA).
(§3) The compound 1 was tested on the two cell lines of human glioblastoma multiforme ANGM-CSS and U118MG, which are resistant to temozolomide.

A further experiment has as its system ANGM-CSS. The experiment in a line: cell viability / cytotoxicity by WST-1 colorimetric assay in ANGM-CSS. The following applies: alone. On the procedure: as §1, §2, §3

Counter-ions that a name gives are not always drawn.

With `Cc1ccc(S(=O)(=O)Nc2ccc3c(c2)/C(=C/c2cnc[nH]2)C(=O)N3)cc1` [compound 9, N-[(3Z)-3-(1H-imidazol-5-ylmethylidene)-2-oxo-2,3-dihydro-1H-indol-5-yl]-4-methylbenzenesulfonamide], the cell viability entry in the experiment with U87MG cells (compound alone at 100 nM, 500 nM, 1 µM) is given as “inhibits cell viability, in a concentration-dependent way”. The minimal effective concentration in the experiment on U87MG cells (Homo sapiens, U-87 MG, compound alone, read-out: concentration from which the effect on cell viability is significant) is ≥ 0.5 µM.
As for `COc1cc2c(cc1OC)CN(CC(=O)Nc1ccc3c(c1)/C(=C/c1cccs1)C(=O)N3)CC2` [compound 1, N-[(3Z)-(2-oxo-3-(thiophene-2-ylmethylene)-2,3-dihydro-1H-indol-5-yl]-2-(6,7-dimethoxy-3,4-dihydroisoquinol-2-(1H)-yl)-acetamide hydrochloride], the cell viability entry in the experiment with U118-MG is “significant reduction of cell viability”; in the experiment with ANGM-CSS (10µM) it was “no significant effect on cell viability”; in the experiment with ANGM-CSS (100 µM) it was “significant reduction in cell viability”.
